This data set deals with C8161 cells. The data set can be described thus: Soft agar / anchorage independent growth assay, C8161 cells. The data set is classed as cell-based, human. The following applies: C8161 treated with anti-Nodal Morpholino. Here is the method:
An in vitro colony forming assay was used to analyze colony-forming ability of poorly aggressive C81-61 cells, aggressive C8161 cells, C8161 cells treated with MO^Nodal and C8161 cells treated with MO^Nodal and rescued with recombinant Nodal (100 ng/mL). The assay was conducted using 50,000 cells suspended in 0.35% agarose in RPMI containing 10% serum, which were plated into 6-well dishes on 0.5% agar in the same medium. Colonies grew, and pictures were taken at day 7. After 2 weeks, colonies were stained with Crystal Violet and counted.
The derivation and phenotypic characteristics of the human melanoma cell lines have been previously described. Seftor, et. al., 2002, Clin. Experim. Metastas. 19:233-246; Seftor, et. al., 2005 Cancer Res. 65:10164-10169. The melanoma cell lines are maintained in RPMI 1640 medium (Invitrogen) supplemented with 10% fetal bovine serum (FBS, Gemini Bioproducts) and 0.1% gentamycin sulfate with the exception of C81-61 cells which are maintained in Ham's FIO medium supplemented with 15% FBS, 1X Mito+ (BD Bioscience) and gentamycin sulfate. Normal human melanocytes are purchased (Cascade Biologics) or isolated from neonatal foreskins. Seftor, et. al., 2005. A single cell suspension is prepared, added to plastic flasks for the adherence of melanocytes and the cells propagated in Medium 254 with Human Melanocyte Growth Supplement (Cascade Biologics) including, 100 units/ml penicillin, 100 μg/ml streptomycin, and 250 ng/mL amphotericin B. The human embryonic stem cell lines are cultured as previously described. Thomson, et. al., 1998, Science 282:1145-1147. Briefly, cells are grown in 6-well plates precoated with 0.1% porcine gelatin and containing 1.9×10^5 irradiated mouse embryonic fibroblasts (strain CF-1; ATCC) per well. The cells are maintained in medium containing DMEM/F12 (1:1), 20% knock-out serum replacement, non-essential minimal amino acids, L-glutamine (Invitrogen), […], and 4 ng/ml FGF-2 (R&D Systems), and are split with collagenase (1 mg/ml) before the colonies begin to overlap. The cultures are determined to be free of mycoplasma contamination using a PCR-based assay (Roche). The normal human neonatal epidermal melanocytes (HEMn-LP; Cascade Biologics, Portland Oreg.), myoepithelial cells (Hs 578 Bst; American Type Culture Collection (ATCC), Manassas, Va.) and primary mammary epithelial cells (HMEpC; Cell Applications Inc., San Diego Calif.) were maintained as per distributor instructions. Live umbilical cord blood stem cells (SC00125; New Jersey Stem Cell Resource at Coriell Institute for Medical Research) amniotic fluid derived stem cells (GM00473, GM00957A) and adult bone marrow derived mesenchymal stem cells (Stem Cell Technologies, Vancouver BC, Canada) were maintained under the recommended conditions. The HTR-8/SVneo is a well characterized immortalized human extravillous cytotrophoblast cell line, and was maintained as previously described Graham et al., 1993, Exp. Cell Res. 206:204-211. […] The expression vector for wild type Nodal was kindly provided by Dr. Daniel Constam (Swiss Institute for Experimental Cancer Research (ISREC), Epalinges, Switzerland) and was transfected into C81-61 cells as previously described. Le Good et al., 2005, Curr. Biol. 15:31-36. […]

With “MO^Nodal: FITC-conjugated anti-sense Morpholino to Nodal, 5′-AAGCAGCACCTCCAGCCCTTATATC-3′ [SEQ ID NO: 20] (all phosphorodiamidate morpholino (PMO); FITC conjugated, position not given here)”, the “reduction of colony formation” value (after 2 weeks, n=16, p<0.001) is given as 57%. For the same substance, for the setting “soft agar”, the “ability to undergo anchorage-independent growth” value is listed as “significantly diminished”.
